Assays:
GL261 murine glioma [1] = test: Intracranial GL261 glioma model, flow cytometry of tumor and lymph node cell populations; assay type: in vivo, C57BL/6 mice; details: day 16 post-implant, 72 h after second treatment
Description: There may be limited endogenous immune response to tumor in C57BL/6 mice intracranially implanted with GL261 murine glioma (FIG. 1A). Mice were intracranially implanted with GL261 murine glioma and then administered PBS (1×) or lysate-pulsed DC vaccine subcutaneously on days 3 and 13 post-tumor implant. On day 16, 72 h after the second treatment, mice were euthanized and spleen, lymph, and brain hemispheres harvested for processing. […] To determine the overall physiologic effect of these cell populations, two groups of GL261 glioma-bearing mice (control and DC vaccine-treated) were maintained and monitored survival.
It was hypothesized that anti-tumor response promoted by the vaccination treatment is mitigated by PD-1/PD-L1 signaling in the tumor microenvironment. […] To evaluate this population, two additional therapies to control and DC-vaccine treatment were examined: anti-PD-1 mAb-treated and combination DC vaccine with anti-PD-1 mAb-treated groups. Spleen, lymph, and brain hemispheres harvested for processing on day 16 post-implant (72 h after second treatment). […] To evaluate therapeutic benefit, mice were implanted, treated, and monitored for survival.
The inhibitory myeloid population was depleted utilizing Ly6C depleting Ab or the clinically-relevant CSF1r inhibitory drug PLX3397. […]

GL261 murine glioma [2] = test: Intracranial GL261 glioma model, survival; assay type: in vivo, C57BL/6 mice; details: well-established intracranial GL261 glioma
Description: The inhibitory myeloid population was depleted utilizing Ly6C depleting Ab or the clinically-relevant CSF1r inhibitory drug PLX3397. […] Spleen, lymph, and brain hemispheres harvested for processing on day 16 post-implant (72 h after second treatment).
Bone marrow-derived DC and vaccination. […] Briefly, bone marrow cells were cultured in a humidified atmosphere of 5% CO2 at 37° C. overnight in complete RPMI (Mediatech, Inc. Herndon, Va.) (supplemented with 10% FBS, 1% (v/v) penicillin and streptomycin). […]

[3] = tested on: advanced, treatment-refractory malignancies; details: cited from earlier work
[4] = tested on: diffuse large B-cell lymphoma (DLBCL); details: cited from earlier work

## FC(F)(F)c1ccc(CNc2ccc(Cc3c[nH]c4ncc(Cl)cc34)cn2)cn1 [PLX3397]
GL261 murine glioma [1]
  activated tumor-infiltrating lymphocytes (CD3+CD8+CD25+): significant tumor-infiltrating population
  inhibitory myeloid population (Ly6C+, PD-L1+) in tumor: absence
GL261 murine glioma [2]
  survival: entirely recovered survival benefit

## BMS-936558: fully human IgG4 monoclonal antibody targeting PD-1
[3]; advanced, treatment-refractory malignancies, biweekly administration
  tumor regressions: durable partial or complete regressions
[3]; subjects with non-small cell lung cancer (NSCLC)
  clinical activity: substantial clinical activity

## CT-011: humanized IgG1 monoclonal antibody against PD-1
[4]; phase II trial finding
  activity of natural killer cells: augments the activity of natural killer cells
[4]; phase II, DLBCL after autologous stem cell transplantation, control group 47%
  subjects progression-free at the end of the follow-up period: 70%
[4]; phase II, DLBCL after autologous stem cell transplantation, control group 62%
  subjects alive: 82%

Source: US20150202291A1, “COMBINATIONS OF CHECKPOINT INHIBITORS AND THERAPEUTICS TO TREAT CANCER” (COGNATE BIOSERVICES, INC., priority 2013, published 2015)
